From ChEMBL document CHEMBL3991601, “The target landscape of clinical kinase drugs” (Science, 2017)
Active and inactive are the calls of the source. Cut-off read from the data, not from the text of the source, for most assays here: actives have a measured Kd and inactives only a lower limit.

How the values were obtained:
Deoxycytidine kinase = Deoxycytidine kinase (Homo sapiens, UniProt P27707)
Heme oxygenase 2 = biological target: T1, Heme oxygenase 2 (Homo sapiens, UniProt P30519)
T1 sequence (P30519 whole entry): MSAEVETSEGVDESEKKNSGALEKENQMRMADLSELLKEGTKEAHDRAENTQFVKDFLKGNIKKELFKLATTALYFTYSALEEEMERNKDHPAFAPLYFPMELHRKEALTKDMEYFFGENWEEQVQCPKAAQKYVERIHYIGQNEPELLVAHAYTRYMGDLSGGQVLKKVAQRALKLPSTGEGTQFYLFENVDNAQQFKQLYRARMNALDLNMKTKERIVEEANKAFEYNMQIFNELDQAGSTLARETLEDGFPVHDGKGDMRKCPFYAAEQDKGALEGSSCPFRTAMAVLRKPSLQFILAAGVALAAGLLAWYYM

[1] = biological target: Mitogen-activated protein kinase kinase kinase 4 (Homo sapiens, UniProt Q9Y6R4)
Chain of Mitogen-activated protein kinase kinase kinase 4 (Q9Y6R4 whole entry): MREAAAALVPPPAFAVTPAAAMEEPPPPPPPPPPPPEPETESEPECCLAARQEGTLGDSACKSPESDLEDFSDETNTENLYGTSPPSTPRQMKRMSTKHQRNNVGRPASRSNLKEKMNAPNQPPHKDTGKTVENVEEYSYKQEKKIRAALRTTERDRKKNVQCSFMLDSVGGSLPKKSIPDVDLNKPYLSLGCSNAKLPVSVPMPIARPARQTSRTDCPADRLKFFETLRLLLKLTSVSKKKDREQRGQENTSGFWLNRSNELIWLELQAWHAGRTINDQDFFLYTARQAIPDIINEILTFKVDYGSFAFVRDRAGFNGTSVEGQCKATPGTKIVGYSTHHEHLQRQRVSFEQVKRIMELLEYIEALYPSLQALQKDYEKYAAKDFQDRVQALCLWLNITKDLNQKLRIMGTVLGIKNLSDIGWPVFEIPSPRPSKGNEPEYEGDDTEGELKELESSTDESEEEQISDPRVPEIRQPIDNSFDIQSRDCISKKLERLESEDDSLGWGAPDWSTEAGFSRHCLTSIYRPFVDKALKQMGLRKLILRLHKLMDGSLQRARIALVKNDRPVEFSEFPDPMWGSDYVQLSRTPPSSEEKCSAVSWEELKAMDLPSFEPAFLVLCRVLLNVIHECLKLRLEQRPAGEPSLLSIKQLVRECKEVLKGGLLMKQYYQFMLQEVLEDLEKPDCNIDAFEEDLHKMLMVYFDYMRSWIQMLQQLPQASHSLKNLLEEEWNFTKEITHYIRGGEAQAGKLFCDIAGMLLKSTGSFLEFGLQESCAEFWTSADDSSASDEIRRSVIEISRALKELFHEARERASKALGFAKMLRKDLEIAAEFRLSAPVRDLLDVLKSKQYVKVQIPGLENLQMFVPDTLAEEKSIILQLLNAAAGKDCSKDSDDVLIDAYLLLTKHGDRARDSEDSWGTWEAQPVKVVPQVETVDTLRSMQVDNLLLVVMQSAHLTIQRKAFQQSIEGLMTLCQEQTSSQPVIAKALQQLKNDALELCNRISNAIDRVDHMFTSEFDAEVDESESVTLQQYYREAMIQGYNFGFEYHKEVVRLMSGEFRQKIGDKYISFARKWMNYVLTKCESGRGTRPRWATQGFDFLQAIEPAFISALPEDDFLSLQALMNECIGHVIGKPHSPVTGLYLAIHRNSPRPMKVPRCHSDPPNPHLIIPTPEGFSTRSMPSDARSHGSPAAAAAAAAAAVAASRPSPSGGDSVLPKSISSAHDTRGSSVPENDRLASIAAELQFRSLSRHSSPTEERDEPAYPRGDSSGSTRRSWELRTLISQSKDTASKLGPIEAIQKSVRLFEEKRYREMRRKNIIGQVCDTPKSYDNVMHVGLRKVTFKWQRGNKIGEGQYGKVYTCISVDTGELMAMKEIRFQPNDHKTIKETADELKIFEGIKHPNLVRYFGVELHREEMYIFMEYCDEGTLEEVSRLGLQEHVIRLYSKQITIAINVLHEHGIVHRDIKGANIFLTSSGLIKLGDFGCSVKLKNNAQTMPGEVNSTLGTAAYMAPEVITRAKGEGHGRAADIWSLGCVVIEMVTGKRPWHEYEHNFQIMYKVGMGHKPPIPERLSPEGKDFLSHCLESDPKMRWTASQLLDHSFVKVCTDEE

[2] = biological target: Receptor-interacting serine/threonine-protein kinase 2 (Homo sapiens, UniProt O43353)
Chain of Receptor-interacting serine/threonine-protein kinase 2 (O43353 whole entry): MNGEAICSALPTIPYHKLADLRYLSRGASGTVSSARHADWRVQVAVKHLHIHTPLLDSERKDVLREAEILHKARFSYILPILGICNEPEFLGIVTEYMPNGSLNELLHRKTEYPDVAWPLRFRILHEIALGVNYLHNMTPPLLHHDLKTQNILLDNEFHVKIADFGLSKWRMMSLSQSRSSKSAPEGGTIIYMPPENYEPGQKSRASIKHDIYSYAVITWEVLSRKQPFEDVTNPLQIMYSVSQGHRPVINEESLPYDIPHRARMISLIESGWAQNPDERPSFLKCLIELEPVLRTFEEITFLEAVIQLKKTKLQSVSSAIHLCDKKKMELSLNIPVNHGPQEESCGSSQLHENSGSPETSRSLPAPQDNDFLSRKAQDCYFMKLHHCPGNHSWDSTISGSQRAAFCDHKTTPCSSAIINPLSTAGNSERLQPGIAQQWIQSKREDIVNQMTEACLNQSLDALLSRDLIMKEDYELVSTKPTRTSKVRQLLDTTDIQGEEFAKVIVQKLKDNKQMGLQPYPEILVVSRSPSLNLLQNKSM

[3] = biological target: T2, Serine/threonine-protein kinase STK11 (Homo sapiens, UniProt Q15831)
T2 sequence (Q15831 whole entry): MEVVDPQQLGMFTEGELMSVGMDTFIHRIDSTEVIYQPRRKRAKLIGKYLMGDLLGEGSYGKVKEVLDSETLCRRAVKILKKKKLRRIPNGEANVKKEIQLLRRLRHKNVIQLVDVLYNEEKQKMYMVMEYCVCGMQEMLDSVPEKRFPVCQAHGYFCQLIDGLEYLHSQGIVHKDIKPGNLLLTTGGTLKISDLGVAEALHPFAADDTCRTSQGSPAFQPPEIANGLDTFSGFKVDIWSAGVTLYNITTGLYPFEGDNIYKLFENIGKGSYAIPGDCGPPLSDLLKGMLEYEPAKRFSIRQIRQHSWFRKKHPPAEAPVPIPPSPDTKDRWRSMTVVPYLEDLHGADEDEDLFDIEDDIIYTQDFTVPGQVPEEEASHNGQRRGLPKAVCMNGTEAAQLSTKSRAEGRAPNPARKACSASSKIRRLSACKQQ

[4] = biological target: T3, Serine/threonine-protein kinase 3 (Homo sapiens, UniProt Q13188)
T3 sequence (Q13188 whole entry): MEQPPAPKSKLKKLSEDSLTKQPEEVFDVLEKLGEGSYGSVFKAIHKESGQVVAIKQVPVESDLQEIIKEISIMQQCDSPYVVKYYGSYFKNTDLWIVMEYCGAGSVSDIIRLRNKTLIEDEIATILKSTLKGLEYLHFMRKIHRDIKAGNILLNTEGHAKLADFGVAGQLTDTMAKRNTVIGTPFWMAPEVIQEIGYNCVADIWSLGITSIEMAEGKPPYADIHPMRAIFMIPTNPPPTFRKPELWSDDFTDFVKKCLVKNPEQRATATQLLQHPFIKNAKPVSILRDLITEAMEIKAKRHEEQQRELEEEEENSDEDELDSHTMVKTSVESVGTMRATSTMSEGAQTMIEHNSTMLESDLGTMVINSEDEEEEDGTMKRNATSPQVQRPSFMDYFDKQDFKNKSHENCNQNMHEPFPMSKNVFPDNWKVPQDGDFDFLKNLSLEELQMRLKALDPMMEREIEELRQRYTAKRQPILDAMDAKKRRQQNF

[5] = biological target: T4, Serine/threonine-protein kinase ULK1 (Homo sapiens, UniProt O75385)
T4 sequence (O75385 whole entry): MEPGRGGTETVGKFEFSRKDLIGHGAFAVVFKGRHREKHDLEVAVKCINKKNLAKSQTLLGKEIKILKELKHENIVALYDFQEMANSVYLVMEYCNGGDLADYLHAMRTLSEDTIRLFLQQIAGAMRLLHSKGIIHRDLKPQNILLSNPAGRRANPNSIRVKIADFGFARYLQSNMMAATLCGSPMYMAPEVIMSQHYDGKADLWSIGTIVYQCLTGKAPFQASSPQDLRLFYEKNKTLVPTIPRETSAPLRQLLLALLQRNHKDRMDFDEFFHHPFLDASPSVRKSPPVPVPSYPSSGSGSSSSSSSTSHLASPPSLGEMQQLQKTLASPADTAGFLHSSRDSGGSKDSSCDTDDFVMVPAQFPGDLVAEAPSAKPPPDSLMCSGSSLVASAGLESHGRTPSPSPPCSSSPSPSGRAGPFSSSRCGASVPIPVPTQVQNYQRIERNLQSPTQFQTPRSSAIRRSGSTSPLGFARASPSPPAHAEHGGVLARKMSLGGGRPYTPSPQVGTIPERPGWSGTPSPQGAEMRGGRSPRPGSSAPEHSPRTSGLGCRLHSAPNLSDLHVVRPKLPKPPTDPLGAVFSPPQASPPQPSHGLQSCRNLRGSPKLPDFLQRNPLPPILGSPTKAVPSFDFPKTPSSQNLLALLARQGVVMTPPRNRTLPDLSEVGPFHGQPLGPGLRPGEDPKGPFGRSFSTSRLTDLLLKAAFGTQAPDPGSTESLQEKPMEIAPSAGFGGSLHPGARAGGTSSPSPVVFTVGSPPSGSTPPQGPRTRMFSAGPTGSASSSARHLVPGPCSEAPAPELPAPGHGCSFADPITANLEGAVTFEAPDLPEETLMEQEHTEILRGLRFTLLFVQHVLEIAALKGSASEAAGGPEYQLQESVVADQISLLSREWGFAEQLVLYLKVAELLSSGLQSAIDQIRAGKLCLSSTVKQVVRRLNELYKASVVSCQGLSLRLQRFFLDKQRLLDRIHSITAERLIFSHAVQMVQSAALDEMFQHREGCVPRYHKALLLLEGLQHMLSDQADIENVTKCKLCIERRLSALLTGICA
Note: in the data inactive means no Kd found up to 30 µM.

Chain of Deoxycytidine kinase (P27707 whole entry): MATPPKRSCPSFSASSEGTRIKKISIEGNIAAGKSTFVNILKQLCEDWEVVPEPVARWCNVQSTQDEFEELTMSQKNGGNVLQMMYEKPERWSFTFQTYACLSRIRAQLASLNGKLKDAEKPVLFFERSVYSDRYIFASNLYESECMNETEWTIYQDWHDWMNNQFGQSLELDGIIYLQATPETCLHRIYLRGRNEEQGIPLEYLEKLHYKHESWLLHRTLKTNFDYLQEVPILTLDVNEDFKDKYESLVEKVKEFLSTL

Structure (SMILES)	Kd (Deoxycytidine kinase)	Kd (Heme oxygenase 2)	Kd [1]	Kd [2]	Kd [3]	Kd [4]	Kd [5]
FC(F)(F)c1ccc(/C=C/c2nc(COc3ccc(CCCCn4ccnn4)cc3)co2)cc1 [MUBRITINIB]	> 30 µM (inactive)	> 30 µM (inactive)	> 30 µM (inactive)	> 30 µM (inactive)	> 30 µM (inactive)	> 30 µM (inactive)	> 30 µM (inactive)
COc1ncc(-c2ccc3nccc(-c4ccnnc4)c3c2)cc1NS(=O)(=O)c1ccc(F)cc1F [OMIPALISIB]	> 30 µM (inactive)	> 30 µM (inactive)	> 30 µM (inactive)	> 30 µM (inactive)	> 30 µM (inactive)	> 30 µM (inactive)	> 30 µM (inactive)
CCCCCCCCCCCCCCCCCCOP(=O)([O-])OC1CC[N+](C)(C)CC1 [PERIFOSINE]	> 30 µM (inactive)	> 30 µM (inactive)	> 30 µM (inactive)	> 30 µM (inactive)	> 30 µM (inactive)	> 30 µM (inactive)	> 30 µM (inactive)
Cc1cnc(NC(=O)Nc2cc(Br)c(C)cc2OC[C@@H]2CNCCO2)cn1 [RABUSERTIB]	> 30 µM (inactive)	> 30 µM (inactive)	> 30 µM (inactive)	> 30 µM (inactive)	> 30 µM (inactive)	> 30 µM (inactive)	> 30 µM (inactive)
CNC(=O)c1cc(Oc2ccc(NC(=O)Nc3cc(C(C)(C)C)nn3-c3ccc4ncccc4c3)c(F)c2)ccn1 [REBASTINIB]	> 30 µM (inactive)	> 30 µM (inactive)	> 30 µM (inactive)	> 30 µM (inactive)	> 30 µM (inactive)	12.1 µM (active)	> 30 µM (inactive)
CO[C@H]1C[C@@H]2CC[C@@H](C)[C@@](O)(O2)C(=O)C(=O)N2CCCC[C@H]2C(=O)O[C@H]([C@H](C)C[C@@H]2CC[C@@H](OP(C)(C)=O)[C@H](OC)C2)CC(=O)[C@H](C)/C=C(\C)[C@@H](O)[C@@H](OC)C(=O)[C@H](C)C[C@H](C)/C=C/C=C/C=C/1C [RIDAFOROLIMUS]	> 30 µM (inactive)	> 30 µM (inactive)	> 30 µM (inactive)	> 30 µM (inactive)	> 30 µM (inactive)	> 30 µM (inactive)	> 30 µM (inactive)
N#CC1(c2ccc(NC(=O)c3cccnc3NCc3ccncc3)cc2)CCCC1 [RIVOCERANIB]	> 30 µM (inactive)	> 30 µM (inactive)	> 30 µM (inactive)	> 30 µM (inactive)	> 30 µM (inactive)	> 30 µM (inactive)	> 30 µM (inactive)
O=c1[nH]ccc2cc(OC3CCNCC3)ccc12 [SAR-407899 FREE BASE]	> 30 µM (inactive)	> 30 µM (inactive)	> 30 µM (inactive)	> 30 µM (inactive)	> 30 µM (inactive)	> 30 µM (inactive)	> 30 µM (inactive)
CN1CCN(CCOc2cc(OC3CCOCC3)c3c(Nc4c(Cl)ccc5c4OCO5)ncnc3c2)CC1 [SARACATINIB]	> 30 µM (inactive)	> 30 µM (inactive)	> 30 µM (inactive)	0.002 µM (active)	> 30 µM (inactive)	> 30 µM (inactive)	> 30 µM (inactive)
CO[C@H]1C[C@@H]2CC[C@@H](C)[C@@](O)(O2)C(=O)C(=O)N2CCCC[C@H]2C(=O)O[C@H]([C@H](C)C[C@@H]2CC[C@@H](O)[C@H](OC)C2)CC(=O)[C@H](C)/C=C(\C)[C@@H](O)[C@@H](OC)C(=O)[C@H](C)C[C@H](C)/C=C/C=C/C=C/1C [SIROLIMUS]	> 30 µM (inactive)	> 30 µM (inactive)	> 30 µM (inactive)	> 30 µM (inactive)	> 30 µM (inactive)	> 30 µM (inactive)	> 30 µM (inactive)
CO[C@H]1C[C@@H]2CC[C@@H](C)[C@@](O)(O2)C(=O)C(=O)N2CCCC[C@H]2C(=O)O[C@H]([C@H](C)C[C@@H]2CC[C@@H](OC(=O)C(C)(CO)CO)[C@H](OC)C2)CC(=O)[C@H](C)/C=C(\C)[C@@H](O)[C@@H](OC)C(=O)[C@H](C)C[C@H](C)/C=C/C=C/C=C/1C [TEMSIROLIMUS]	> 30 µM (inactive)	> 30 µM (inactive)	> 30 µM (inactive)	> 30 µM (inactive)	> 30 µM (inactive)	> 30 µM (inactive)	> 30 µM (inactive)
COc1cc2c(Nc3ccc(Cl)c(Cl)c3F)ncnc2cc1OC[C@@H]1C[C@@H]2CN(C)C[C@@H]2C1 [TESEVATINIB]	> 30 µM (inactive)	> 30 µM (inactive)	> 30 µM (inactive)	0.033 µM (active)	> 30 µM (inactive)	> 30 µM (inactive)	> 30 µM (inactive)
O=C(Cc1ccc(-c2ccc(OCCN3CCOCC3)cc2)cn1)NCc1ccccc1 [TIRBANIBULIN]	> 30 µM (inactive)	> 30 µM (inactive)	> 30 µM (inactive)	> 30 µM (inactive)	> 30 µM (inactive)	> 30 µM (inactive)	> 30 µM (inactive)

The next lines start with the values.

Kd (Deoxycytidine kinase)	Kd (Heme oxygenase 2)	Kd [1]	Kd [2]	Kd [3]	Kd [4]	Kd [5]	Structure (SMILES)
> 30 µM (inactive)	> 30 µM (inactive)	> 30 µM (inactive)	> 30 µM (inactive)	> 30 µM (inactive)	> 30 µM (inactive)	> 30 µM (inactive)	CN(C[C@@H]1COCCO1)S(=O)(=O)Nc1ccc2ccc3ncc(-c4cnn(C)c4)cc3c(=O)c2c1 [MK-2461]
> 30 µM (inactive)	> 30 µM (inactive)	> 30 µM (inactive)	> 30 µM (inactive)	> 30 µM (inactive)	> 30 µM (inactive)	> 30 µM (inactive)	Cn1cc(-c2cnc3ccc4ccc(CS(=O)(=O)NCc5ccccn5)cc4c(=O)c3c2)cn1 [MK-8033]
> 30 µM (inactive)	> 30 µM (inactive)	> 30 µM (inactive)	> 30 µM (inactive)	0.434 µM (active)	2.2 µM (active)	> 30 µM (inactive)	Cc1nc(Nc2n[nH]c3c2CN(C(=O)N[C@H](CN(C)C)c2ccccc2)C3(C)C)c2sccc2n1 [PF-03758309]
> 30 µM (inactive)	> 30 µM (inactive)	> 30 µM (inactive)	> 30 µM (inactive)	> 30 µM (inactive)	> 30 µM (inactive)	> 30 µM (inactive)	Cn1cc(-c2cnn3c(N)c(Br)c([C@@H]4CCCNC4)nc23)cn1 [SCH-900776]
> 30 µM (inactive)	> 30 µM (inactive)	> 30 µM (inactive)	> 30 µM (inactive)	> 30 µM (inactive)	2.76 µM (active)	> 30 µM (inactive)	CCS(=O)(=O)c1cccc(-c2cc(C(=O)NC3CCN(C)CC3)c(C)c3[nH]c4ncc(C)cc4c23)c1 [TAK-901]
